Test results reported in patent US20250154174A1, “BICYCLIC HETEROCYCLES AS MRGPRX2 ANTAGONISTS” (Incyte Corporation, priority 2023, published 2025).
pIC50: −log10 of the molar value.

Legend:
Type in all cases: cell-based
MRGPRX2 [1] = target: T1, MRGPRX2 (Homo sapiens, UniProt Q96LB1); assay: MRGPRX2 β-Arrestin assay; set-up: host or cells: PathHunter CHO-K1; details: PathHunter CHO-K1 MRGPRX2 β-Arrestin cell line; agonist Cortistatin 14 0.25 μM
T1 sequence (Q96LB1 1-330): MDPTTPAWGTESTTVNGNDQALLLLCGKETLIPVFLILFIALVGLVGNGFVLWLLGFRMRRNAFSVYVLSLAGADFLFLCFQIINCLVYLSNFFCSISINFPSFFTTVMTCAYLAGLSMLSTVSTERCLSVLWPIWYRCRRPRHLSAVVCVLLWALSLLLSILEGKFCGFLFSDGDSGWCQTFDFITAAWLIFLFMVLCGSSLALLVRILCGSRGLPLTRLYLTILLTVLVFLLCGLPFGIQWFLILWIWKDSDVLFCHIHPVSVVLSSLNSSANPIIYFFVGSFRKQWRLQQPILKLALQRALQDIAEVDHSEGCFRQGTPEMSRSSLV
Text: This assay measures compound inhibition of β-Arrestin recruitment, which is part of the G protein-independent pathway that results from the ligand-activated GPCR phosphorylation by specific GPCR kinases. The PathHunter CHO-K1 MRPGRX2 B-Arrestin Cell line stably expressing ProLink tagged MRGPRX2 and Enzyme Acceptor Tagged B-Arrestin was purchased from Eurofins DiscoverX, (Fremont, CA).
The cells were maintained in culture medium from the Europhins DiscoverX Cell Culture Kit-107 which includes FBS, hygromycin B and G418. For the assay, the cells were harvested and were resuspended with Cell Plating Reagent 2 (Eurofins DiscoverX). Cells were added 10000 cells in 25 μL/well to a 384-well black cell culture plate (Greiner VWR, Radnor, PA) which contained 125 nL/well of compound at a selected serially diluted concentration range or DMSO. The plate was incubated at 37° C. with 5% CO2 for 1 h. 2 μL/well of agonist Cortistatin 14 was diluted in Protein Dilution Buffer, (Eurofins DiscoverX) for a final concentration of 0.25 μM, was added and the plate was incubated at 37° C. with 5% CO2 for 90 min. 14 μL/well of Detection Reagent Mix (PathHunter Detection Kit, Eurofins DiscoverX) was added to the plates and further incubated for 1 h in the dark. Plates were read on the PHERAstar microplate reader (BMG Labtech Cary, NC) measuring luminescence 0.1 to 1 s per well. […]

MRGPRX2 [2] = target: T1, MRGPRX2; assay: MRGPRX2 FLIPR calcium mobilization assay; set-up: host or cells: CHO-K1; details: CHO-K1 cells stably expressing human MRGPRX2; agonist Cortistatin-14 at EC80; Ca2+ release
Procedure: Chinese hamster ovary (CHO-K1) cells stably expressing human MRGPRX2 were purchased from Genescript (Piscataway, NJ). The cells were maintained in culture medium (Ham's F-12K) containing 10% (v/v) FBS, 200 μg/mL Zeocin, 100 units/mL penicillin G and 100 μg/mL streptomycin (Life Technologies, Carlsbad, CA). For the assay, the cells were harvested and resuspended with culture medium without Zeocin before plating at 8000 cells per well in 20 μL in 384-well black clear bottom cell culture plates (VWR, Radnor, PA). After 24 h culture at 37° C. and 5% CO2, the cells were loaded with 20 μL/well of calcium dye (FLIPR Calcium 6 Assay Kit, Molecular Devices, San Jose, CA) diluted in loading buffer (1× Hank's Balanced Salt Solution (HBSS), 5 mM probenecid, 20 mM 4-(2-hydroxyethyl)-1-piperazineethanesulfonic acid (HEPES), pH 7.4, VWR, Radnor, PA) followed with 45 min. incubation at 37° C. and 40 min. at r.t. in the dark. Cells were then treated with the addition of 10 uL/well test compounds with a range of increasing concentrations diluted in the assay buffer (1×HBSS, 20 mM HEPES, pH 7.4, VWR, Radnor, PA) with FLIPR Penta (Molecular Devices. San Jose, CA) and incubated for 30 min. at r.t. Ca^2+ release was measured with FLIPR Penta with 10 s basal fluorescence measurement, then 12.5 μL of 5× agonist Cortistatin-14 (Tocris, Minneapolis, MN) at final concentration corresponding to the EC80 were added followed with continued fluorescence signal monitoring for an additional 110 s. The base line adjusted (median of first 10s base line) max value of the Relative Fluorescence Unit (RFU) was plotted against compound concentrations. Wells with no compound were served as the positive controls, and wells with high concentration of reference antagonist were used as negative controls. IC50 curves were globally fitted with 3- or 4-parameter Hill equation in a Genedata Screener (Genedata Basel, Switzerland).

MRGPRX2 [3] = target: T1, MRGPRX2; assay: MRGPRX2 IP1 HTRF assay; set-up: host or cells: CHO-K1; details: CHO-K1 cells stably expressing human MRGPRX2; agonist Cortistatin 14 1 μM; IP1 accumulation
Procedure: This assay measures compound inhibition of myo-Inositol 1 phosphate (IP1) accumulation in CHO-K1 cells. Chinese hamster ovary (CHO-K1) cells stably expressing human MRGPRX2 were purchased from GenScript (Piscataway, NJ).
For the HTRF IP1 determination, an IP-One GqKit (Perkin Elmer Cisbio, Waltham, MA), which includes all reagents and buffers in this protocol, was used. The cells were maintained in culture medium (Ham's F-12K) containing 10% (v/v) FBS, and 200 μg/mL Zeocin. For the assay, the cells were harvested and resuspended in culture medium with 2% FBS and without Zeocin, then were passed through a 40 μm filter. Cells were added at 20000 cells in a 5 μL/well to a 384-well white small volume cell culture plate (Greiner VWR, Radnor, PA) which contained 50 nL/well of test compound serially diluted at a selected concentration range in DMSO. 5 μL/well of prepared 2× Stimulation Buffer2 was then added to plates and was incubated at 37° C. with 5% CO2 for 1 h. 5 μL/well of agonist Cortistatin 14 (Bio-TechneR&D Systems, Minneapolis, MN) in 1×Stimulation Buffer 2, for a 1 μM final concentration, was then added to plates and incubated at 37° C. with 5% CO2 for 1 h. 6 μL/well of 1:20 diluted Detection Reagent Mix (d2 and Cryptate) was added to the plates and incubated for 1 h in the dark. Plates were read on the PHERAstar microplate reader (BMG Labtech Cary, NC) to determine the HTRF ratio of the acceptor and donor emission signals. The IP1 concentrations were calculated from a standard curve following the IP-One GQ kit instructions. Wells with DMSO only and wells with high concentration of reference antagonist were used as controls for normalization. Compound IC50 curves were globally fitted with 3- or 4-parameter Hill equation in a Genedata Screener (Genedata Basel, Switzerland).

Measured: pIC50

FC(F)(F)c1cn2c(N[C@H]3CCC[C@@H](Nc4nccc5ncccc45)C3)cccc2n1 [Example 3, (1R,3S)—N^1-(1,6-Naphthyridin-5-yl)-N^3-(2-(trifluoromethyl)imidazo[1,2-a]pyridin-5-yl)cyclohexane-1,3-diamine]
7.00 to 10.00: all assays above

FC(F)(F)c1cn2c(N[C@H]3CC[C@@H](Nc4nccn5cncc45)CC3)cccc2n1 [Example 5, (1s,4s)-N^1-(Imidazo[1,5-a]pyrazin-8-yl)-N^4-(2-(trifluoromethyl)imidazo[1,2-a]pyridin-5-yl)cyclohexane-1,4-diamine]
7.00 to 10.00: all assays above
